Experimental data from patent US20210154162A1, “DRUG AND PHARMACEUTICAL COMPOSITION CONTAINING TRANSPORT PROTEIN INHIBITOR, AND USE” (Institute of Basic Medical Sciences Chinese Academy of …, priority 2018, published 2021).
Structures can show the parent of a compound that is named as a salt.

What was measured:
[1] = system: PD-1; test: Effect of SAR and BCH on PD-1 expression in human peripheral blood CD8+ T cells (flow cytometry); format: cell-based; conditions: breast cancer patients, 200 μM Kyn + 10 mM SAR or 100 μM BCH, 48 h
Method: Mononuclear cells were isolated and obtained from the peripheral whole blood of breast cancer patients by using Ficoll. CD8^+ T cells were sorted by magnetic beads, and seeded into a U-shaped bottom 96-well plate (100000 cells/well) while anti-CD3/CD28 magnetic beads were added to activate T cells. The culture medium was RPMI-1640 added with 10 ng/mL human IL-2. Cells were grouped and treated with drugs as follows.
(§1) Control group 1 (PBS): culture medium+PBS;
(§2) Experimental group 2 (Kyn): culture medium+200 μM Kyn;
Experimental group 3 (Kyn+SAR): culture medium+200 μM Kyn+10 mM SAR; Experimental group 4 (Kyn+BCH): culture medium+200 μM Kyn+100 μM BCH;
(§3) The expression level of PD-1 in CD8^+ T cells of each group was determined by flow cytometry after 48 h.

[2] = system: SLC7A8 and PAT4; test: Kyn consumption by activated CD8+ T cells with SLC7A8/PAT4 inhibition or knockdown (ELISA); format: cell-based, mouse; conditions: Kyn 200 μM, 48 h
Method: (3) Scramble shRNA or shRNA against SLC7A8 and PAT4 were delivered via retrovirus to activated CD8^+ T cells for 24 h, and then the transduced T cells were treated with Kyn (200 μM) for 48 h. Kyn levels in the supernatants were determined by ELISA and the Kyn consumption was calculated.

[3] = system: OVA-B16 cells; test: Effect of SAR and BCH on killing of OVA-B16 cells by OT-1 CD8+ T cells (apoptosis, flow cytometry); format: cell-based, mouse; conditions: T cells pretreated 24 h with 10 mM SAR or 100 μM BCH; co-culture 1:10, 4 hours
Method: Splenic CD8^+ T cells of OT-1 mouse were obtained by magnetic bead sorting and seeded into a U-shaped bottom 96-well plate (100000 cells/well). Cells were grouped and treated with drugs as follows.
as §1
Experimental group 2 (SAR): culture medium+10 mM SAR;
Experimental group 3 (BCH): culture medium+100 μM BCH;
After T cells were pretreated for 24 hours, 3D-cultured OVA-B16 cells were co-cultured with OT-1 CD8^+ T cells at a ratio of 1:10, and the apoptosis of OVA-B16 cells was determined by flow cytometry after 4 hours.

[4] = system: PD-1; test: AhR activity and PD-1 expression in CD8+ T cells with SLC7A8/PAT4 inhibition or knockdown; format: cell-based, mouse; conditions: for PD-1 upregulation: Kyn 200 μM, 48 h; for AhR activity: T cells treated with transporter inhibitor
Method: (4) The experimental steps were the same as those of step (3), except that the expression of PD-1 was analyzed by flow cytometry.

[5] = system: OVA-B16 TRCs; test: OT-1 T cell cytotoxicity to OVA-B16 TRCs with SLC7A8/PAT4 inhibition or knockdown; format: cell-based, mouse; conditions: co-culture
Method: (5) Activated OT-1 T cells were transfected with scramble shRNA, PAT4 shRNAs (Sh1 and Sh2) or SLC7A8 shRNAs (Sh1 and Sh2) for 72 h, and then co-cultured with OVA-B16 TRCs. TRC apoptosis was analyzed by flow cytometry.

[6] = system: PD-1; test: Effect of SAR and BCH on PD-1 expression in mouse CD8+ T cells (flow cytometry); format: cell-based; conditions: 200 μM Kyn + 10 mM SAR or 100 μM BCH, 48 h
Method: Mouse splenic CD8^+ T cells were obtained by magnetic bead sorting, and seeded into a U-shaped bottom 96-well plate (100000 cells/well) while anti-CD3/CD28 magnetic beads were added to activate T cells. The culture medium was RPMI-1640 added with 10 ng/mL mouse IL-2 and […] β-mercaptoethanol. Cells were grouped and treated with drugs as follows.
as §1, §2
Experimental group 3 (Kyn+SAR): culture medium+200 μM Kyn+10 mM SAR;
Experimental group 4 (Kyn+BCH): culture medium+200 μM Kyn+100 μM BCH;
as §3

[7] = system: PAT4 and SLC7A8; test: PAT4 and SLC7A8 expression in activated CD8+ T cells (real-time PCR, immunostaining); format: cell-based, mouse; conditions: activated CD8+ T cells, Kyn/CH-223191 (10 μM) or Kyn/DMF (20 μM), 48 h
Method: (2) Activated CD8^+ T cells were treated with PBS or Kyn (200 μM) for 24 h. The expression of PAT4 and SLC7A8 was determined by real-time PCR (left) and immunostaining (right). Bar, […].
(6) The mRNA expression of PAT4 and SLC7A8 was determined in activated CD8^+ T cells treated with PBS, Kyn, Kyn/CH-223191 (10 μM) or Kyn/DMF (20 μM) for 48 h.

[8] = system: AhR; test: PD-1 expression in activated CD8+ T cells treated with Kyn plus AhR inhibitor (flow cytometry); format: cell-based, mouse; conditions: Kyn plus inhibitor (DMF 10 or 20 μM), 72 h
Method: (4) CD8^+ T cells activated by anti-CD3/CD28 beads were treated with PBS, Kyn or Kyn/DMF (10 or 20 μM) for 72 h. The expression of PD-1 was determined by flow cytometry.

[9] = system: PAT4 and SLC7A8; test: PAT4 and SLC7A8 expression in CD8+ T cells from breast cancer patients (real-time PCR); format: cell-based, human; conditions: Kyn/DMF (20 μM) or Kyn/CH (50 μM), 48 h
Method: (8) CD8^+ T cells from breast cancer patients were treated with PBS, Kyn ([…] (20 μM) or Kyn/CH (50 μM) for 48 h. The expression of PAT4 and SLC7A8 was determined by real-time PCR. The determination results were as shown in FIG. 7I.

[10] = system: PD-1; test: PD-1 expression in human CD8+ T cells treated with Kyn and AhR inhibitors (flow cytometry); format: cell-based; conditions: human CD8+ T cells, Kyn plus inhibitor (DMF 20 μM), 48 h
Method: (4) CD8^+ T cells isolated from PBMCs of patients with breast cancer or lung cancer were activated by anti-CD3/CD28 beads and treated with PBS, Kyn (200 μM) or Kyn/DMF (20 μM) for 48 h. The expression of PD-1 was determined by flow cytometry.
(5) CD8^+ T cells isolated from patients with breast cancer or lung cancer were treated with DMF (20 μM) for 48 h. PD-1 expression was determined by flow cytometry (n=6).

[11] = system: PD-1; test: PD-1 expression in anti-CD3/CD28 bead-activated CD8+ T cells treated with Kyn or other tryptophan metabolites (flow cytometry); format: cell-based, mouse; conditions: other tryptophan metabolites 500 μM, 24 h
Method: (4) The isolated splenic CD8^+ T cells were incubated with anti-CD3/CD28 beads in the presence of different concentrations of Kyn. PD-1 expression was determined by flow cytometry.
(5) The experimental steps were the same as those of step (4), except that CD8^+ T cells were treated with 200 μM Kyn for different time periods as shown in FIG. 2E.
(6) Anti-CD3/CD28 bead-activated CTLs were treated with PBS, 200 μM Kyn or other metabolites (500 μM) from the tryptophan pathway (melatonin, kynurinic acid and indoxyle sulphate). After 24 h, PD-1 expression was determined by flow cytometry.

[12] = system: PD-1; test: PD-1 expression in activated CD8+ T cells treated with TCDD (qPCR, flow cytometry); format: cell-based, mouse; conditions: 48 h
Method: (7) Activated CD8^+ T cells were treated with TCDD for 48 h and then PD-1 expression was analyzed by qPCR (left) and flow cytometry (right). The data represented mean±SEM.

[13] = molecular target: T1, tryptophan transporter SLC1A5 (Mus musculus, UniProt P51912); test: Effect of GPNA on the uptake of tryptophan by tumor cells (ELISA of lysates); format: cell-based; conditions: OVA-B16 cells, 50 ng/mL IFN-γ, 24 h
T1 construct: endogenous in cells; host or cells: mouse OVA-B16 melanoma cells
T1 sequence (P51912 1-553): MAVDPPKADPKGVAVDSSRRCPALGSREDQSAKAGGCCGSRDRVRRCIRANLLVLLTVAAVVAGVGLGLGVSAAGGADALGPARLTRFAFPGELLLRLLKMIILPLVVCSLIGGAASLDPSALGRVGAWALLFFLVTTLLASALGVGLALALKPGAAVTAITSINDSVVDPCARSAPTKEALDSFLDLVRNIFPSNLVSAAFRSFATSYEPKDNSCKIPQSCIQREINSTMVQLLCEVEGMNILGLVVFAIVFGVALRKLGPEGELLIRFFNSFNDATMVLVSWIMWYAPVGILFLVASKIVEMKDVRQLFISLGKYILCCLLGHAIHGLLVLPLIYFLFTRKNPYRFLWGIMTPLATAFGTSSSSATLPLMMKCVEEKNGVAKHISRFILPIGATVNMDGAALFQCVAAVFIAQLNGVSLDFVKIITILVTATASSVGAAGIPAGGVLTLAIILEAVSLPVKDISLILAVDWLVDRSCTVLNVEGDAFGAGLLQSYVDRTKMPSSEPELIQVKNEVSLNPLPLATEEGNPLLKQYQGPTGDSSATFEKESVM
Method: Mouse OVA-B16 cells were cultured in RPMI-1640 culture medium in vitro and were group and treated as follows.
as §1
Control group 2 (GPNA): culture medium+10 μM GPNA;
Experimental group 3 (IFN-γ): culture medium+50 ng/mL IFN-γ;
Experimental group 4 (IFN-γ+GPNA): culture medium+50 ng/mL IFN-γ+10 μM GPNA;
The cells in each group were collected after 24 h and ultrasonically broken, the concentrations of tryptophan in the lysates were determined by ELISA, and BCA protein assay was carried out at the same time.

Molecule: CNCC(=O)O [SAR, sarcosine]
- expression of PD-1 in CD8+ T cells [1]: significantly reducing
- entry of Kyn into T cells [2]: blocked
- apoptosis ratio of OVA-B16 tumor cells [3]: increased significantly
- PD-1 upregulation [4]: abolished
- AhR activity [4]: inhibited
- OT-1 T cell cytotoxicity to OVA-B16 TRCs [5]: enhanced
- expression of PD-1 in CD8+ T cells [6]: significantly reducing

Molecule: Cc1ccccc1N=Nc1ccc(NC(=O)c2ccnn2C)c(C)c1 [CH-223191]
- Kyn-induced upregulation of SLC7A8 and PAT4 [7]: effectively inhibiting
- Kyn-dependent upsurge of PD-1 [8]: thwarted
- Kyn-induced upregulation of SLC7A8 and PAT4 [9]: blocked
- Kyn-induced PD-1 upregulation [10]: inhibited

Molecule: NC1(C(=O)O)CC2CCC1C2 (centres unmarked) [BCH, 2-amino-2-norbornanecarboxylic acid]
- expression of PD-1 in CD8+ T cells [1]: significantly reducing
- entry of Kyn into T cells [2]: blocked
- apoptosis ratio of OVA-B16 tumor cells [3]: increased significantly
- PD-1 upregulation [4]: abolished
- AhR activity [4]: inhibited
- OT-1 T cell cytotoxicity to OVA-B16 TRCs [5]: enhanced
- expression of PD-1 in CD8+ T cells [6]: significantly reducing

Molecule: COc1ccc2[nH]cc(CCNC(C)=O)c2c1 [melatonin]
- PD-1 expression [11]: none of them was able to alter PD-1 expression

Molecule: Clc1cc2c(cc1Cl)Oc1cc(Cl)c(Cl)cc1O2 [TCDD]
- PD-1 expression [12]: upregulated

Molecule: O=S(=O)(O)Oc1c[nH]c2ccccc12 [indoxyl sulfate]
- PD-1 expression [11]: none of them was able to alter PD-1 expression

Molecule: O=C(O)c1cc(=O)c2ccccc2[nH]1 [kynurenic acid]
- PD-1 expression [11]: none of them was able to alter PD-1 expression

B1: IFN-γ: recombinant IFN-γ purchased from R & D Systems (protein, UniProt P01579 24-161, looked up)
Interferon gamma: QDPYVKEAENLKKYFNAGHSDVADNGTLFLGILKNWKEESDRKIMQSQIVSFYFKLFKNFKDDQSIQKSVETIKEDMNVKFFNSNKKKRDDFEKLTNYSVTDLNVQRKAIHELIQVMAELSPAAKTGKRKRSQMLFRG
- uptake of tryptophan by tumor cells [13]: significantly increasing
